# Measurements published in EP0222996A2, “3-Amino-dihydro(1)benzopyrane and benzothiopyrane” (CIBA-GEIGY AG, priority 1985, dated 1987).
# Where a name gives a salt, the structure may show the parent alone. Read-outs that look alike come from different tables or passages of the source.
# Target: T1, Serotonin-(S-1A) (Rattus norvegicus, UniProt P19327)
# T1 construct: Suspensionen aus Membranmaterial von Rattenhirn; from tissue; host or cells: rat brain membranes
# T1 sequence (P19327 1-422): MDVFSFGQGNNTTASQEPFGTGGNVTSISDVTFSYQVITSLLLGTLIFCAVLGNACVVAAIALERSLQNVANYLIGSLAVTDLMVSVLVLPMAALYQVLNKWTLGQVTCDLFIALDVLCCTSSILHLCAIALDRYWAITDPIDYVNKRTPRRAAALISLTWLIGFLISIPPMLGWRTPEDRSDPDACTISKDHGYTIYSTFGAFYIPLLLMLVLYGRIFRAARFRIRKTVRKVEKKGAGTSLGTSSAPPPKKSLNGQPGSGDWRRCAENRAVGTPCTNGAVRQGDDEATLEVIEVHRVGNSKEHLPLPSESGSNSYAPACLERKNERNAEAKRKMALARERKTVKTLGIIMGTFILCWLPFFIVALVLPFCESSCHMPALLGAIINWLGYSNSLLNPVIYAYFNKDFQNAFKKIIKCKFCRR
# Test: 3H-serotonin binding assay on rat brain membrane suspensions
# Parameters: species or system Ratten
# Description: Die Serotonin-(S-1A)-Aufnahme, welche für Regulatoren mit Rezeptor-eigenschaften bei Serotonin-Agonisten indiziert ist, kann in-vitro wie folgt in einem Bindungsassay nachgewiesen werden: • Man stellt Suspensionen aus Membranmaterial von Rattenhirn her und inkubiert diese mit ^3H-Serotonin gemäss der Vorschrift von Martin und Sanders-Bush, Naunyn-Schmiederberg Arch. Pharmacol. 321, 165 (1982) und Middlemiss und Fozard Eur. J. Pharmacol., 90, 151 (1983).
# In diesem Bindungsassay werden aliquote Teile von […] Zellsuspensionen zu abgepufferten ^3H-Serotonin-Lösungen mit und ohne Wirkstoff gegeben. Die Konzentration an ^3H-Serotonin ist 2 nM und man wertet die zu testenden Wirkstoffe über einen weiten Konzentrationsbereich aus. Die IC50-Werte (Konzentrationen an Wirkstoff, welche zur Hemmung von 50 % 2 nM ^3H-Serotonin nötig sind) werden graphisch bestimmt.
"IC50 (concentration needed to inhibit 50 % of 2 nM 3H-Serotonin, rat brain membranes, determined graphically, read-out: IC50-Werte)",Structure (SMILES),IC50
~0.021 µM,"CCCN(CCC)C1CSc2cccc(OCC)c2C1 (centres unmarked) [3,4-Dihydro-N,N-dipropyl-5-ethoxy-2H-[1]-benzothiopyran-3-amin-hydrochlorid]",–
–,"CCCN(CCC)C1COc2cccc(OCC)c2C1 (centres unmarked) [5-Aethoxy-N,N-dipropyl-3,4-dihydro-2H-[1]-benzopyran-3-amin-hydrochlorid]",~0.04 µM
